Results: patent US20030032579A1, “Therapeutic use of selective PDE10 inhibitors” (Pfizer Inc., priority 2001, published 2003)
Where “and” joins values, the source holds several entries; their conditions need not be identical. Equal values may be shown once.

How the values were obtained:
[1] = test system: male CD rats; assay: Catalepsy (bar test), alone and with haloperidol; assay type: in vivo, rat; settings: s.c.; for catalepsy when administered alone: 30 min after dosing, papaverine up to 32 mg/kg
Description: This animal model is used to analyze the effects of compounds on basal ganglia output. […] For some experiments, this was immediately followed by haloperidol. Thirty minutes after drug administration(s), the degree of catalepsy was quantified by placing the animals forepaws on an elevated (10 cm) bar (1 cm diameter) and determining the latency to remove both forepaws from the bar with a latency cutoff of 30 sec. Latencies were ranked within each treatment group for comparison by a Kruskall-Wallace analysis of variance. Post hoc analysis was by the Mann Whitney U test.

[2] = test system: primary cultures of rat striatal neurons (medium spiny neurons); assay: cGMP accumulation in SNP-stimulated striatal cultures (Example 2); assay type: cell-based; settings: for cGMP EC200: SNP-stimulated rat striatal cultures, mean ± S.E.M.
Protocol: (§1) The striatal cultures were prepared as previously described (Ventimiglia et al., Eur. J. Neurosci. 7: 213-222, 1995). Briefly, striata (caudate nucleus and putamen) are dissected from E17 rats, were dissociated to produce a single cell suspension and plated at a density of 5×10^4 neurons/well in multiwell plates coated with poly-L-ornithine/laminin. The cells were plated in Neurobasal medium with B27 supplements and BDNF (100 ng/mL). Experiments were typically performed after 4 days in vitro. Medium spiny neurons comprise the majority of cells in these cultures (50 to 60%, as confirmed by GABA immunoreactivity).
(§2) The striatal cells were exposed to phosphodiesterase inhibitors and incubated for twenty minutes at 37 degrees Celsius. When measuring cGMP, the neurons were stimulated with sodium nitroprusside, a nitric oxide source for two minutes following the 20-minute incubation with compound. When measuring cAMP, the neurons were stimulated with forskolin, an activator of adenylate cyclase for the duration of the twenty minute compound incubation. The cells were lysed using a 9:1 combination of cAMP SPA direct screening Assay Buffer (0.05M acetate with 0.01% sodium azide) and Buffer A (133 mg/mL dodecyltrimethylammonium bromide) and the lysates were frozen on dry ice. A cGMP [[…]] or cAMP [[…]] scintillation proximity assay (SPA) system (Amersham code RPA 540 and RPA 559, respectively) was used to detect the concentration of the respective cyclic nucleotide in the cell lysate.
(§3) We therefore examined the effects of the compound under conditions in which cAMP or cGMP synthesis was stimulated with forskolin or the NO donor sodium nitroprusside (SNP), respectively.

[3] = test system: primary cultures of rat striatal neurons (medium spiny neurons); assay: cAMP accumulation in forskolin-stimulated striatal cultures (Example 2); assay type: cell-based; settings: for cAMP EC200: forskolin-stimulated rat striatal cultures, mean ± S.E.M.; for cAMP/cGMP (ratio of EC200 values): rat striatal cultures, Example 2
Protocol: as §1, §2, §3

[4] = biological target: T1, PDE10 (Rattus norvegicus, UniProt Q9QYJ6); assay: PDE inhibition, SPA cyclic nucleotide hydrolysis assay; assay type: biochemical
T1 construct: made in house; host or cells: SF9 cells
T1 sequence (Q9QYJ6 1-794): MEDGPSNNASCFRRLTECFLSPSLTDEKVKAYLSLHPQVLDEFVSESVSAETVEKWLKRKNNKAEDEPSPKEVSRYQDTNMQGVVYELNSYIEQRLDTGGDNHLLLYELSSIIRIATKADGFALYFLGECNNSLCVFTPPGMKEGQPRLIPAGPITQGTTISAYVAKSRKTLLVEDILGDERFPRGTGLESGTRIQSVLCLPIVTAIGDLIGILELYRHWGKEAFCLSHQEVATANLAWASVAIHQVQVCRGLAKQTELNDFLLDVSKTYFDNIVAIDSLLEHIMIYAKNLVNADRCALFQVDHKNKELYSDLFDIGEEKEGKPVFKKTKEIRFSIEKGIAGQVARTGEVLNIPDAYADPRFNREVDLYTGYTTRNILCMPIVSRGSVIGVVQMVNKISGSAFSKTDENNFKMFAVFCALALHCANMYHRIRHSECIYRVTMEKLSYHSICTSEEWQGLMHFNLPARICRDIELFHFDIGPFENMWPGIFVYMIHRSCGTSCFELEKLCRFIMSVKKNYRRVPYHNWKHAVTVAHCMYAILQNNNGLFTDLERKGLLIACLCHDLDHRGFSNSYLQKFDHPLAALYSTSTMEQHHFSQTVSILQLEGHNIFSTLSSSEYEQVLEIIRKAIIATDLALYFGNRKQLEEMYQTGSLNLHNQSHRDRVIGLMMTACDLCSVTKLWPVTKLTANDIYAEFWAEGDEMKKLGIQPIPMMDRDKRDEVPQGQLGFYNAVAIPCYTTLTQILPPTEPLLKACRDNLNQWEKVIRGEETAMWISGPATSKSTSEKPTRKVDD

[5] = test system: T2, PDE1; assay: as above; assay type: biochemical, human; settings: substrate at 1/3 Km
T2 construct: other: substrate at 1/3 Km
Description: (§4) PDEs 2, 3 and 5, isozymes, including human PDEs, can, for example, be prepared from corpus cavernosum; PDE1, isozymes including human, from cardiac ventricle; and PDE4, isozymes, including human, from skeletal muscle. PDE6 can be prepared, for example, from canine retina. Description of enzyme preparation from native tissue is described, for example, by Boolell, M. et al., Int. J. Impotence Research 8:7-52, 1996, incorporated herein by reference.
(§5) PDEs 7-11 can similarly be prepared from native tissue. Isozymes from the PDEs 7-9 and 11 families can alternatively be generated from full length human recombinant clones transfected into, for example, SF9 cells as described in Fisher, D. A., et al., Biochem. Biophys. Res. Comm. 246, 570-577, 1998; Soderling, S. H. et al., PNAS 96: 7071-7076, 1999; Fisher, D. A. et al., J. Biol. Chem. 273, 15559-15564, 1998b; and Fawcett, L., et al., PNAS 97: 3702-3707, 2000; respectively. PDE10 can also be generated from a rat recombinant clone transfected into SF9 cells (Fujishige et al., European Journal of Biochemistry, Vol. 266, 1118-1127 (1999)). The enzymes are then prepared by FPLC from the soluble fraction of cell lysates as described for PDE6. The aforementioned references are incorporated in their entireties herein by reference. […]

[6] = test system: T3, PDE7; assay: as above; assay type: biochemical, human; settings: substrate at 1/3 Km
T3 construct: other: substrate at 1/3 Km
Description: as §4, §5

[7] = biological target: T4, PDE9 (Homo sapiens, UniProt O76083); assay: as above; assay type: biochemical
T4 construct: made in house; host or cells: SF9 cells
Protocol: (§8) In one assay, a substance is screened for inhibition of cyclic nucleotide hydrolysis by the PDE10 and the PDEs from the other gene families. The cyclic nucleotide substrate concentration used in the assay of each individual PDE is ⅓ of the Km concentration, allowing for comparisons of IC50 values across the different enzymes. PDE activity is measured using a Scintillation Proximity Assay (SPA)-based method as previously described (Fawcett et al., 2000). The effect of PDE inhibitors is determined by assaying a fixed amount of enzyme (PDEs 1-11) in the presence of varying substance concentrations and low substrate, such that the IC50 approximates the Ki (cGMP or cAMP in a 3:1 ratio unlabelled to [^3H]-labeled at a concentration of ⅓ Km). The final assay volume is made up to 100 μl with assay buffer [20 mM Tris-HCI pH 7.4, 5 mM MgCl2, 1 mg/ml bovine serum albumin]. […] Plates are re-sealed and shaken for 20 min, after which the beads were allowed to settle for 30 min in the dark and then counted on a TopCount plate reader (Packard, Meriden, Conn.). […]
(§9) PDE activity was measured using the assay with yttrium silicate SPA beads described above in the Detailed Description section.

[8] = biological target: T5, PDE11 (Homo sapiens, UniProt Q9HCR9); assay: as above; assay type: biochemical
T5 construct: made in house; host or cells: SF9 cells
Protocol: as §8, §9

[9] = test system: Sprague-Dawley rats; assay: Locomotor activity (shuttle box crossovers), PCP- or amphetamine-stimulated; assay type: in vivo, rat
Protocol: Adult, male, Sprague-Dawley rats (250-300 g) were obtained from Charles River (Wilmington, Mass.). Locomotor activity was assessed using crossover behavior in commercially available shuttle boxes (Coulbourn Instruments, Allentown, Pa.). Data was collected in 5 minute intervals for 1 hour after drug administration. Animals received either vehicle (5% DMSO, 5% Emulphor, 90% Saline) phencyclidine (PCP, Sigma Chem. Co.) or amphetamine Sulfate (RBI) followed immediately by either vehicle or test compound. Statistical analysis was performed using the Student's t-test.

[10] = test system: primary cultures of rat striatal neurons (medium spiny neurons); assay: cGMP accumulation in SNP-stimulated striatal cultures (Example 2); assay type: cell-based; settings: compound alone, no stimulus
[11] = test system: primary cultures of rat striatal neurons (medium spiny neurons); assay: cAMP accumulation in forskolin-stimulated striatal cultures (Example 2); assay type: cell-based; settings: compound alone, no stimulus
[12] = test system: medium spiny neurons; assay: cGMP accumulation in SNAP-stimulated medium spiny neuron culture (Example 5); assay type: cell-based, rat
Protocol: (§6) Medium spiny neuron cultures were prepared as discussed in Example 2 from striata from E17 or E18 rat embryos. The striata were digested with trypsin and the dissociated cells plated on poly-L-omithine/laminin coated plates in Neurobasal medium containing B27 supplement. For assays of cyclic nucleotide formation and CREB phosphorylation, neurons are also supplemented with 50 ng/ml BDNF and used at 6 DIV. At this time, approximately 90% of the cells are of neuronal morphology and 50% stain positively for GABA.
(§7) The PDE inhibitors were differentiated by the potencies with which they potentiated the increase in cAMP versus cGMP (Table 3).

[13] = test system: medium spiny neurons; assay: cAMP accumulation in forskolin-stimulated medium spiny neuron culture (Example 5); assay type: cell-based, rat
Protocol: as §6, §7

[14] = test system: medium spiny neurons; assay: CREB phosphorylation in medium spiny neurons, Western blot; assay type: cell-based, rat; settings: Western blotting
Protocol: as §6
cAMP and cGMP activate protein kinases PKA and PKG, respectively. Both kinases are capable of phosphorylating the transcription regulator CREB. We examined the effects of the selective PDE inhibitors in Table 3 on phosphorylation of CREB as a downstream event in the cyclic nucleotide signaling cascade.

[15] = test system: medium spiny neurons; assay: Differentiation of medium spiny neurons to GABA phenotype, Array Scan; assay type: cell-based, rat; settings: added at plating, read at 6 DIV
Protocol: The transcriptional events activated following CREB phosphorylation are involved in the survival and differentiation of neurons. We investigated whether the PDE inhibitors in Table 3 effect the survival and differentiation of the medium spiny neurons. These experiments were conducted using a protocol used by Ventimiglia et al. (see Ventimiglia et al., 1995, supra) to assay the effects of BDNF on these processes in medium spiny neurons. Specifically, the PDE inhibitors were added to the medium spiny neuron culture medium at the time of plating, and then at 6 DIV various parameters related to neuronal survival and differentiation were quantified using the Array Scan System from Cellomics, Inc (Pittsburgh, Pa., USA).
Blue-nuclei; Green-neuron; Red-neuron staining positively for GABA.

T4 sequence (O76083 whole entry): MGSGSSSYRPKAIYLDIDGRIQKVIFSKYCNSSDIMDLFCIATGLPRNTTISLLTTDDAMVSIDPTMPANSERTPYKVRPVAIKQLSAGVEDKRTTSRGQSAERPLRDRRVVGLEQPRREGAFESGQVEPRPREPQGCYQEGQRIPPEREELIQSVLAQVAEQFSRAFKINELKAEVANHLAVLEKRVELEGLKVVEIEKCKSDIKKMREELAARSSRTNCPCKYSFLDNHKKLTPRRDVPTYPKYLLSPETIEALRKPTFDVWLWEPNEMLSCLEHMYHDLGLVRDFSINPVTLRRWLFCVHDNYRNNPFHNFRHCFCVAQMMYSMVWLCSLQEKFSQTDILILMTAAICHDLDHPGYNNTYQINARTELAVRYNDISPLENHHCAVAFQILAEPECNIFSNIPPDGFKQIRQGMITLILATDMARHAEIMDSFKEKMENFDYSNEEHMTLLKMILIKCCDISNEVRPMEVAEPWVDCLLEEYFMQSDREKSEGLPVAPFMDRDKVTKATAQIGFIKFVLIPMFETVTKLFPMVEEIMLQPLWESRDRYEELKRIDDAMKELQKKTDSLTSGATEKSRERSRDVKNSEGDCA
T5 sequence (Q9HCR9 445-933): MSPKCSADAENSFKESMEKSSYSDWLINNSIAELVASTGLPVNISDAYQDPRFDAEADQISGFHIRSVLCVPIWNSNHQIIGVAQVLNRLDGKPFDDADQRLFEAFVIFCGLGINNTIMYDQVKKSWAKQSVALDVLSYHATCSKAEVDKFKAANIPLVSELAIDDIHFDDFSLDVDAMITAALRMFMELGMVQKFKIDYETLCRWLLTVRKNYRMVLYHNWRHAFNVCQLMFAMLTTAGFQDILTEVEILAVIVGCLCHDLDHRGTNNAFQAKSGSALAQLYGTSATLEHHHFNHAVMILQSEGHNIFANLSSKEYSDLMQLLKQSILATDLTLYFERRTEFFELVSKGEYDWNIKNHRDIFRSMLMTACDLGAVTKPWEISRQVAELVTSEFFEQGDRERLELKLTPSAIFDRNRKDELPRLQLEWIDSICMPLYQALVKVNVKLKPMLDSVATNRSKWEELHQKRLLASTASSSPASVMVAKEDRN

O=C(CCCN1CCC(O)(c2ccc(Cl)cc2)CC1)c1ccc(F)cc1 [haloperidol] was tested, and the “maximally effective dose for catalepsy” value [1] was 1 mg/kg and the “catalepsy when administered alone” value [1] was “robust catalepsy”.

CC(C)Cn1c(=O)n(C)c(=O)c2[nH]cnc21 [IBMX] was tested, and the “cGMP EC200” value [2] was 19 μM and 19.5 (1) μM, the “cAMP EC200” value [3] was 30 μM and 30.2 (2) μM and the “cAMP/cGMP (ratio of EC200 values)” value [3] was 1.5.

CCCOc1ccccc1-c1nc2nn[nH]c2c(=O)[nH]1 [Zaprinast] was tested, and the “cGMP EC200” value [2] was 98.3 ± 10.3 (3) μM, the “cAMP EC200” value [3] was >100 (3) μM and the “cAMP/cGMP (ratio of EC200 values)” value [3] was 1.

COc1ccc(Cc2nccc3cc(OC)c(OC)cc23)cc1OC [Papaverine, 1-[(3,4-dimethoxyphenyl)methyl]-6,7-dimethoxyisoquinoline] gave an IC50 [4] of 0.018 µM, an IC50 [5] of 37 µM and an IC50 [6] of 27 µM. The IC50 [7] was 400 µM, the IC50 [8] was 11 µM and the “cGMP EC200” value [2] was 11.7 μM and 11.7 ± 8.2 (4) μM. The “maximal elevation of cGMP over cultures stimulated with SNP alone” value ([2]; at 100 μM) was 5 fold, the “cAMP EC200” value [3] was 38.3 ± 11.4 (4) μM and the “catalepsy when administered alone” value [1] was “did not alone induce catalepsy”. For the same compound, the “minimum effective dose for potentiation of haloperidol-induced catalepsy” value ([1]; haloperidol […]) was 3.2 mg/kg, the “locomotor activity, compound alone” value ([9]; 32 mg/kg, i.p., 60 min) was “small decrease in locomotor activity” and the “amphetamine stimulated locomotion, second experiment” value ([9]; amphetamine 1 mg/kg s.c., 30 minutes) was “effectively inhibited”. The “locomotor activity stimulated by phencyclidine” value ([9]; papaverine 32 mg/kg i.p., PCP […] i.p., 60 min) was “significant reduction in the locomotor activity”, the “locomotor activity stimulated by amphetamine” value ([9]; papaverine 32 mg/kg i.p., amphetamine 1 mg/kg i.p., 60 min) was “without effecting” and the “change in basal level of cGMP” value [10] was “did not produce measurable changes”. For the same compound, the “change in basal level of cAMP” value [11] was “did not produce measurable changes”.

For COc1ccc(C2CNC(=O)C2)cc1OC1CCCC1 (stereo not drawn) [Rolipram], the “cGMP EC200” value [2] was 29.2 ± 10.3 (3) μM, the “fold higher concentration to double cGMP accumulation than cAMP” value ([2]; relative to cAMP EC200) was 10 fold and the “cAMP EC200” value [3] was 2.5 ± 2.0 (3) μM. For the same compound, the “cAMP EC200” value ([3]; listed as rolipram) was 2.5 µM, the “cAMP/cGMP (ratio of EC200 values)” value [3] was 0.09 and the “effect on accumulation of cGMP stimulated with SNAP” value ([12]; FIG. 4) was “potentiate the increase”. For the same compound, the “cGMP EC200” value ([12]; SNAP-stimulated medium spiny neurons, 6 DIV) was 71.1 ± 9.9 µM, the “change in cGMP level in the absence of a stimulus” value ([12]; no stimulus) was “no detectable change” and the “effect on accumulation of cAMP stimulated with forskolin” value ([13]; FIG. 3) was “potentiate the increase”. For the same compound, the “cAMP EC200” value ([13]; forskolin-stimulated medium spiny neurons, 6 DIV) was 2.0 ± 0.2 µM, the “cAMP/cGMP (ratio of EC200 values)” value ([13]; medium spiny neurons, Example 5) was 0.03 and the “change in cAMP level in the absence of a stimulus” value ([13]; no stimulus) was “no detectable change”. For the same compound, the “rank order of efficacy in increasing CREB phosphorylation” value [14] was “forskolin>selective PDE 10 inhibitor>rolipram”, the CREB phosphorylation ([14]; compound without other stimuli) was “increased CREB phosphorylation” and the “number of GABAergic neurons” value [15] was “no effect”.
